Our source for the melting point and Biological effectiveness values is patent US6872729B2, “Pyrimidinylbenzimidazole and triazinylbenzimidazole derivatives and agricultural/horticultural fungicides” (Kumiai Chemical Industry Co., Ltd., priority 1998, dated 2005).

A value given as a limit tells only on which side of the number the result lay.

Tested on in the first data set: not given
Assay: not given
Conditions: not given
One may read the melting point as the temperature, or range, at which the solid turns liquid. The compound `COc1cc(OC)nc(-n2c(OC)nc3ccccc32)n1` [Compound I-18, 1-(4,6-dimethoxypyrimidin-2-yl)-2-methoxybenzimidazole] registered a melting point of 121 to 122 °C.
Compound `Cc1nc2ccccc2n1-c1nc(Cl)nc(Cl)n1` [Compound I-1066, 1-(4,6-dichloro-[1,3,5]triazin-2-yl)-2-methylbenzimidazole] came in with a melting point above 300 °C.
The compound `COc1cc(OC)nc(-n2c(SC)nc3ccccc32)n1` [Compound I-4, 1-(4,6-dimethoxypyrimidin-2-yl)-2-methylthiobenzimidazole] had a melting point of 135 to 137 °C.

In a further data set the test system is Erysiphe graminis. Put plainly: Test for preventive effect on wheat powdery mildew. The class given is in vivo. To be noted: wheat (Norin-61-go) seedlings, 500 ppm active ingredient, preventive treatment; diseased area of first leaves 10 days after inoculation with Erysiphe graminis. In a few lines:
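Wheat seedlings (Norin-61-go), grown 8 days, were sprayed with wettable-powder solutions at 500 ppm active ingredient, air-dried, then inoculated by sprinkling Erysiphe graminis spores. Plants were kept at 20-25° C. Diseased area on first leaves was scored 10 days post-inoculation against a rating standard.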
In the case of `COc1cc(OC)nc(-n2c(C)nc3cc(C(=O)c4ccccc4)ccc32)n1` [Compound I-195], the Biological effectiveness entry is listed as “B (Diseased area of less than 25%)”.
Take `COc1cc(OC)nc(-n2c(Cl)nc3cc(C(F)(F)F)ccc32)n1` [Compound I-259]: the Biological effectiveness result was “A (No diseased area)”.
`CCCOc1cc(C)nc(-n2c(Cl)nc3cc(OC)ccc32)n1` [Compound I-818]: the Biological effectiveness entry is listed as “B (Diseased area of less than 25%)”.
Turning to `COc1ccc2c(c1)ncn2-c1nc(OC)cc(OC)n1` [Compound I-88], the Biological effectiveness result is “B (Diseased area of less than 25%)”.
Consider `COc1ccc2c(c1)nc(C(F)(F)F)n2-c1nc(OC)cc(OC)n1` [Compound I-300], for which the Biological effectiveness entry is recorded as “A (No diseased area)”.
Same read-out and setting: with `CCOCc1nc2ccccc2n1-c1nc(OC)cc(OC)n1` [Compound I-22] the entry was “A (No diseased area)”; with `COc1cc(C)nc(-n2c(C)nc3cc(Cl)ccc32)n1` [Compound I-731], “B (Diseased area of less than 25%)”.
Same read-out and setting: with `COc1nc(OC)nc(-n2c(C(Cl)(Cl)Cl)nc3cc(Cl)ccc32)n1` [Compound I-405] the entry was “A (No diseased area)”.
On the same count and under the same terms, with `CCc1nc2cc(Cl)ccc2n1-c1nc(OC)cc(OC)n1` [Compound I-333] the entry was “A (No diseased area)”; with `CCOc1nc(OCC)nc(-n2c(C(F)(F)F)nc3cc(Br)ccc32)n1` [Compound I-546], “A (No diseased area)”; with `COc1cc(OC)nc(-n2cnc3cc(C(F)(F)F)ccc32)n1` [Compound I-87], “A (No diseased area)”.
Regarding `CNc1nc2cc(Cl)ccc2n1-c1nc(OC)nc(OC)n1` [Compound I-375], the Biological effectiveness entry was “A (No diseased area)”.
Regarding `CC#Cc1cc(C)nc(-n2cnc3ccccc32)n1` [Compound I-1123], the Biological effectiveness result is reported as “B (Diseased area of less than 25%)”.
As for `COc1cc(OC)nc(-n2c(S(C)(=O)=O)nc3cc(Cl)ccc32)n1` [Compound I-423], the Biological effectiveness result was “A (No diseased area)”.
Still for that read-out and setting: with `CSc1nc(SC)nc(-n2c(C(F)(F)F)nc3cc(Cl)ccc32)n1` [Compound I-1046] the entry was “A (No diseased area)”.
Turning to `COc1cc(OC)nc(-n2c(C(Cl)(Cl)Cl)nc3ccc(C)cc32)n1` [Compound I-404], the Biological effectiveness result is listed as “B (Diseased area of less than 25%)”.
For `COc1cc(OC)nc(-n2c(Br)nc3ccccc32)n1` [Compound I-3], the Biological effectiveness entry is given as “A (No diseased area)”.
`CCOc1cc(OCC)nc(-n2c(S(C)(=O)=O)nc3cc(Cl)ccc32)n1` [Compound I-573]: the Biological effectiveness result was “B (Diseased area of less than 25%)”.
Consider `CCOc1cc(OCC)nc(-n2c(C)nc3ccc(Cl)cc32)n1` [Compound I-508], for which the Biological effectiveness entry is given as “B (Diseased area of less than 25%)”.
On the same count and under the same terms, with `COc1cc(OC)nc(-n2c(C)nc3ccc(C(F)(F)F)cc32)n1` [Compound I-203] the entry was “B (Diseased area of less than 25%)”; with `COc1cc(OC)nc(-n2c(CCl)nc3ccccc32)n1` [Compound I-23], “A (No diseased area)”.
As for `Cc1cc(OC(C)C)nc(-n2c(C)nc3ccccc32)n1` [Compound I-840], the Biological effectiveness entry was “B (Diseased area of less than 25%)”.
Consider `COc1nc(OC)nc(-n2c(Cc3ccccc3)nc3cc(Cl)ccc32)n1` [Compound I-379], for which the Biological effectiveness result is “A (No diseased area)”.
Take `Cc1cc(OC(C)C)nc(-n2cnc3ccccc32)n1` [Compound I-839]: the Biological effectiveness entry is listed as “A (No diseased area)”.
As for `COc1cc(OC)nc(-n2cnc3cc(C#N)ccc32)n1` [Compound I-111], the Biological effectiveness entry is on record as “B (Diseased area of less than 25%)”.
Regarding `COc1nc(OC)nc(-n2c(C(F)(F)F)nc3cc(OC(F)(F)F)ccc32)n1` [Compound I-321], the Biological effectiveness entry is recorded as “A (No diseased area)”.
On the same count and under the same terms, with `CCc1cc(C)nc(-n2c(C)nc3ccc(Cl)cc32)n1` [Compound I-1090] the entry was “B (Diseased area of less than 25%)”; with `CCOc1ccnc(-n2cnc3ccccc32)n1` [Compound I-690], “A (No diseased area)”; with `COc1ccc2c(c1)nc(C)n2-c1nc(OC)cc(OC)n1` [Compound I-189], “A (No diseased area)”.
Still for that read-out and setting: with `CCOc1ccnc(-n2cnc3cc(Cl)ccc32)n1` [Compound I-692] the entry was “B (Diseased area of less than 25%)”.
Take `COc1nc(OC)nc(-n2cnc3cc(Br)ccc32)n1` [Compound I-131]: the Biological effectiveness result is “A (No diseased area)”.
In the case of `CCOc1cc(OCC)nc(-n2c(Cl)nc3cc(OC)ccc32)n1` [Compound I-531], the Biological effectiveness result is on record as “A (No diseased area)”.
Consider `COc1cc(OC)nc(-n2cnc3cc(F)ccc32)n1` [Compound I-82], for which the Biological effectiveness entry is “A (No diseased area)”.
As to `COc1cc(OC)nc(-n2c(S(C)(=O)=O)nc3cc(C)ccc32)n1` [Compound I-424], the Biological effectiveness result is recorded as “A (No diseased area)”.
Still for that read-out and setting: with `COc1nc(OC)nc(-n2cnc3cc(I)ccc32)n1` [Compound I-132] the entry was “A (No diseased area)”.
The same measure, in the same setting: with `COc1ccnc(-n2c(C(F)(F)F)nc3cc(C)ccc32)n1` [Compound I-683] the entry was “A (No diseased area)”; with `CCCOc1cc(C)nc(-n2cnc3cc(OC)ccc32)n1` [Compound I-805], “B (Diseased area of less than 25%)”.
Consider `COc1nc(OC)nc(-n2c(C)nc3cc(C(C)(C)C)ccc32)n1` [Compound I-222], for which the Biological effectiveness entry is on record as “B (Diseased area of less than 25%)”.
For the compound `CCc1cc(CC)nc(-n2c(C)nc3cc(Cl)ccc32)n1` [Compound I-1096], the Biological effectiveness result was “A (No diseased area)”.
In the case of `COc1nc(OC)nc(-n2c(C)nc3cc(C(F)(F)F)ccc32)n1` [Compound I-225], the Biological effectiveness entry is listed as “A (No diseased area)”.
Consider `COc1nc(C2CC2)nc(-n2c(C(F)(F)F)nc3cc(C)ccc32)n1` [Compound I-1022], for which the Biological effectiveness result was “A (No diseased area)”.
As for `COc1nc(OC)nc(-n2cnc3cc(C)ccc32)n1` [Compound I-133], the Biological effectiveness result was “A (No diseased area)”.
Regarding `CCOc1cc(OCC)nc(-n2cnc3ccccc32)n1` [Compound I-457], the Biological effectiveness result is “B (Diseased area of less than 25%)”.
For the compound `CCc1cc(C)nc(-n2cnc3cc(C)ccc32)n1` [Compound I-1086], the Biological effectiveness result is “B (Diseased area of less than 25%)”.
Still for that read-out and setting: with `CCCc1cc(OC)nc(-n2c(C)nc3ccc(Cl)cc32)n1` [Compound I-967] the entry was “A (No diseased area)”; with `COc1cc(C)nc(-n2cnc3ccccc32)n1` [Compound I-726], “B (Diseased area of less than 25%)”.
With `CCOc1nc(OCC)nc(-n2c(C)nc3cc(C)ccc32)n1` [Compound I-516], the Biological effectiveness result is given as “A (No diseased area)”.
Regarding `CCOc1nc(OCC)nc(-n2c(C(F)(F)F)nc3cc(C)ccc32)n1` [Compound I-543], the Biological effectiveness entry is given as “A (No diseased area)”.
The same measure, in the same setting: with `COCc1nc2cc(Cl)ccc2n1-c1nc(OC)nc(OC)n1` [Compound I-377] the entry was “A (No diseased area)”.
In the case of `CCc1cc(CC)nc(-n2c(C)nc3cc(C)ccc32)n1` [Compound I-1095], the Biological effectiveness entry is “A (No diseased area)”.
As to `COc1cc(OC)nc(-n2c(C)nc3cc(C#N)ccc32)n1` [Compound I-199], the Biological effectiveness result is reported as “B (Diseased area of less than 25%)”.
Regarding `CCOc1cc(OCC)nc(-n2c(C)nc3cc(F)ccc32)n1` [Compound I-498], the Biological effectiveness result is listed as “A (No diseased area)”.
On to `CCc1ccc2c(c1)nc(C(F)(F)F)n2-c1nc(OC)nc(OC)n1` [Compound I-313], for which the Biological effectiveness result is recorded as “A (No diseased area)”.
Consider `CCOc1cc(OCC)nc(-n2c(Cl)nc3cc(C)ccc32)n1` [Compound I-530], for which the Biological effectiveness result is given as “A (No diseased area)”.
On to `CCOc1cc(OCC)nc(-n2cnc3cc(C)ccc32)n1` [Compound I-482], for which the Biological effectiveness result is “A (No diseased area)”.
The same measure, in the same setting: with `Cc1cc(C2CC2)nc(-n2c(C)nc3ccc(Cl)cc32)n1` [Compound I-1106] the entry was “B (Diseased area of less than 25%)”; with `Cc1cc(C(F)(F)F)nc(-n2cnc3ccccc32)n1` [Compound I-1082], “B (Diseased area of less than 25%)”.
For `COc1cc(OC)nc(-n2c(N)nc3ccc(C)cc32)n1` [Compound I-366], the Biological effectiveness entry is listed as “A (No diseased area)”.
Consider `CCCc1cc(OC)nc(-n2cnc3ccccc32)n1` [Compound I-958], for which the Biological effectiveness result was “B (Diseased area of less than 25%)”.
With `COc1ccc2c(c1)nc(Cl)n2-c1nc(OC)cc(OC)n1` [Compound I-260], the Biological effectiveness entry was “A (No diseased area)”.
As for `CCc1nc2cc(C(F)(F)F)ccc2n1-c1nc(OC)cc(OC)n1` [Compound I-335], the Biological effectiveness entry is “A (No diseased area)”.
Still for that read-out and setting: with `COc1cc(OC)nc(-n2cnc3ccccc32)n1` [Compound I-1] the entry was “A (No diseased area)”.
